{"source": "patent US20120034210A1", "about": "“COMPOSITIONS FOR POTENTIATING APOPOSIS SIGNALS IN TUMOUR CELLS” (INSTITUT BERGONIE, priority 2008, published 2012)", "key": {"[1]": {"system": "T and B leukemia/lymphoma cell lines and activated PBLs treated with FasL", "assay": "Fas/CD95-mediated cell death (MTT test)", "type": "cell-based, human", "experimental": "2 to 4.10^4 cells were deposited in wells in a 96-well plate. The cells were incubated, in the presence of the different reactants for the times specified, at 37° C. in a final volume of 100 or 200 μl.\nThe MTT test enabled to measure the activity of a mitochondrial enzyme, the dehydrogenase succinate which transforms MTT (or 3-(4,5-dimethylthiazol-2-yl)-2,5-diphenyltetrazolium) bromide originally yellow in colour and soluble, into blue formazan crystals, insoluble in aqueous phase. Upon completion of the different treatments, the living cells were quantified by adding in each well 15 μl PBS (Phosphate Buffered Saline) containing 5 mg/ml MTT. […] Spectrophotometric reading of absorbance was done at 570 nm. The measurement of the optical density is directly proportional to the number of living cells and the percentage of cell death was calculated with the following formula: 100-[(DO treated cells/DO non-treated cells)*100]."}, "CD95": {"system": "CD95", "assay": "CD95 aggregation by size exclusion chromatography", "type": "cell-based, human", "conditions": "Jurkat cells; BAPTA-AM pre-treatment", "excerpt": "In order to validate that CD95 underwent aggregation upon down-modulation of intracellular calcium, the formation the micrometer-sized CD95-containing domain was investigated by using size exclusion chromatography (FIG. 10). Decrease in intracellular calcium allowed the redistribution of a significant proportion of CD95 into heavy weighted fractions (FIG. 10), which confirmed that the slight down-modulation of [Ca^2+]i led to the formation of cluster of CD95. It was also observed that calcium-driven CD95-CAP occurred independently of de novo expression of CD95L since no trace of the membrane-bound ligand was detected. […] Since CD95 clustering is an early step of the CD95 molecular ordering, the impact of intracellular calcium on the initial events of CD95 pathway and on cell death was further assessed."}}, "note": "“Also recorded” adds a separate entry of the source."}
{"smiles": "CC(=O)OCOC(=O)CN(CC(=O)OCOC(C)=O)c1ccccc1OCCOc1ccccc1N(CC(=O)OCOC(C)=O)CC(=O)OCOC(C)=O", "note": "[BAPTA-AM, 1,2-bis-(o-Aminophenoxy)ethane-N,N,N′,N′-tetraacetic tetra-(acetoxymethyl) acid Ester]", "values": [{"measurement": "sensitisation to the Fas-mediated apoptotic signal (% cell death)", "setting": "[1]; BAPTA-AM 1 μM pre-incubation then FasL, leukemia/lymphoma cell lines and activated PBLs", "value": "sensitised to the Fas-mediated apoptotic signal; also recorded: increase in percentage of cell death"}, {"measurement": "sensitisation to the Fas-mediated apoptotic signal (% cell death)", "setting": "[1]; BAPTA-AM 1 μM then FasL, BL2 cell line devoid of endogenous Fas", "value": "have not been sensitised"}, {"measurement": "CD95-mediated apoptotic signal in CD95-resistant cells", "setting": "[1]; Jurkat-CD95Q257K, pre-incubation with non-cytotoxic doses", "value": "restored the CD95-mediated apoptotic signal at a level comparable to the parental cell line"}, {"measurement": "apoptotic signal by the agent alone", "setting": "[1]; leukemic cell lines, long-term culture up to 24 hours, no CD95L", "value": "did not trigger the apoptotic signal"}, {"measurement": "CD95 aggregation", "setting": "CD95", "value": "formation of the CD95 aggregation"}]}
